{
  "source": "patent US11524040B2",
  "about": "“Composition for the treatment of acne” (priority 2020, dated 2022)",
  "key": {"Interleukin-6 (IL-6)": {"tested_on": "Interleukin-6 (IL-6)", "assay": "Interleukin-6 expression in keratinocytes", "type": "cell-based, human", "conditions": "24-hour treatment, CBD isolate at same concentration as present in the invention", "procedure": "(§1) In a study using human primary keratinocytes, two formulations were analyzed, Natural Blemish Light Lotion (NB) and Natural Blemish OTC Lotion (OTC) for unique properties. All the following experiments include a 24-hour treatment of the finished products used in the dilutions shown and were analyzed by quantitative polymerase chain reaction (qPCR).\nInterleukin-6 (IL-6) is a well-established marker for inflammation. Largely produced in the skin by keratinocytes, its production leads to the activation of the STAT3 pathway which has been linked to the pathogenesis of many inflammatory skin diseases (Activation of Janus kinase signaling pathway in acne lesions, Sara Mohamed Awad, Yasmin Mostafa Tawfik, Mohamed Ahmed El-Mokhtar, Amira F. El-Gazzar, Amira Ali Abdel Motaleb First published: 19 Nov. 2020 https://doi.org/10.1111/dth.14563). In addition, IL-6 exerts stimulatory effects on T-cells and B-cells, thus favoring chronic inflammatory responses. (Gabay C. Interleukin-6 and chronic inflammation. Arthritis Res Ther. 2006; 8 Suppl 2(Suppl 2):S3. doi:10.1186/ar1917). […] That is, the compositions work better to reduce expression of IL-6 than the individual ingredients, namely CBD alone."}, "[1]": {"tested_on": "Tumor necrosis factor (TNF-α)", "assay": "TNF-α production in human primary sebocytes", "type": "cell-based", "conditions": "human primary sebocytes in vitro; CBD isolate at same concentration as present in the invention", "procedure": "as §1\n(§2) Because sebum production is a major factor in the pathophysiology of acne vulgaris, experiments were performed using human primary sebocytes isolated from the eye area. The main function of sebocytes is considered to be the production of lipids to moisturize the skin. However, it recently became apparent that sebocytes release chemokines and cytokines and respond to proinflammatory stimuli as well as the presence of bacteria. (Attii M, Lovászi M, Garzorz N, Atenhan A, Quaranta M, Lauffer F, Konstantinow A, Küpper M, Zouboulis C C, Kemeny L, Eyerich K, Schmidt-Weber C B, Töröcsik D, Eyerich S. Sebocytes contribute to skin inflammation by promoting the differentiation of T helper 17 cells. Br J Dermatol. 2018 March; 178(3):722-730. doi: 10.1111/bjd.15879. Epub 2018 Jan. 9. PMID: 28799643). The overproduction of sebum, proinflammatory chemokines and cytokines released from sebocytes all contribute to the formation of comedones on the skin. Both OTC and NB were studied as well as AP to investigate the efficacy of these products. […]"}, "Fox-01": {"tested_on": "Fox-01", "assay": "FOX-01 expression in human primary sebocytes", "type": "cell-based", "conditions": "100 ug/mL", "procedure": "as §1, §2"}},
  "data": [
    {"smiles": "C=C(C)[C@@H]1CCC(C)=C[C@H]1c1c(O)cc(CCCCC)cc1O", "note": "[CBD isolate, Cannabidiol]", "values": [
      {"measurement": "reduction of expression of IL-6", "setting": "Interleukin-6 (IL-6)", "value": 6.0, "unit": "%"},
      {"measurement": "lowered production of TNF-α", "setting": "[1]", "value": 14.0, "unit": "%"},
      {"measurement": "increase of Fox-01 expression", "setting": "Fox-01", "value": 50.8, "unit": "%"}
    ]}
  ]
}
